What follows are compounds tested against T1, human V1a receptor (Homo sapiens, UniProt P37288) (assay: human V1a receptor binding (3H-Vasopressin SPA, HEK293 membranes)). Conditions: not given.
T1 construct: expressed in transfected cells; host or cells: HEK293 cells, transiently transfected; cell membranes
T1 sequence (P37288 whole entry): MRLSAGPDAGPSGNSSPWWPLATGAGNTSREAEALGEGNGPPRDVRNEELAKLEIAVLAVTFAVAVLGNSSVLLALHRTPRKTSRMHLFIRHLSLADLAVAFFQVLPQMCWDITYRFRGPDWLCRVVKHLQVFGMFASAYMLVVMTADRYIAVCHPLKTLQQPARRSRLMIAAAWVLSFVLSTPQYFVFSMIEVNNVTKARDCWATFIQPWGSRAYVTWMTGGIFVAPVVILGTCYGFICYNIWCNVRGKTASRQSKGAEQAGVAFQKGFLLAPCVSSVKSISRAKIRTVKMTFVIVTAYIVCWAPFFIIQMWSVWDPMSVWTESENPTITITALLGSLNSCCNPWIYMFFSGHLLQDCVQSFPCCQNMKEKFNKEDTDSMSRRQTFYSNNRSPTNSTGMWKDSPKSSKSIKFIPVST
Procedure: The human V1a receptor was cloned by RT-PCR from total human liver RNA. The coding sequence was subcloned in an expression vector after sequencing to confirm the identity of the amplified sequence. […] Cell membranes were prepared from HEK293 cells transiently transfected with the expression vector and grown in 20 liter fermenters with the following protocol.
50 g of cells are resuspended in 30 ml freshly prepared ice cold Lysis buffer (50 mM HEPES, 1 mM EDTA, 10 mM magnesium dichloride adjusted to pH=7.4+complete cocktail of protease inhibitor (Roche Diagnostics)). Homogenized with Polytron for 1 min and sonicated on ice for 2×2 minutes at 80% intensity (Vibracell sonicator). The preparation is centrifuged 20 min at 500 g at 4° C., the pellet is discarded and the supernatant centrifuged 1 hour at 43′000 g at 4° C. (19'000 rpm). The pellet is resuspended in 12.5 ml Lysis buffer+12.5 ml sucrose 20% and homogenized using a Polytron for 1-2 min. The protein concentration is determined by the Bradford method and aliquots are stored at −80° C. until use. For binding studies 60 mg Yttrium silicate SPA beads (Amersham®) are mixed with an aliquot of membrane in binding buffer (50 mM Tris, 120 mM sodium chloride, 5 mM potassium chloride, 2 mM calcium dichloride, 10 mM magnesium dichloride) for 15 minutes with mixing. 50 μl of bead/membrane mixture is then added to each well of a 96 well plate, followed by 50 μl of 4 nM 3H-Vasopressin (American Radiolabeled Chemicals). For total binding measurement 100 μl of binding buffer are added to the respective wells, for non-specific binding 100 μl of 8.4 mM cold vasopressin and for compound testing 100 μl of a serial dilution of each compound in 2% dimethyl sulfoxide. The plate is incubated 1 h at room temperature, centrifuged 1 min at 1000 g and counted on a Packard Top-Count. Non-specific binding counts are subtracted from each well and data is normalized to the maximum specific binding set at 100%. To calculate an IC50 the curve is fitted using a non-linear regression model (XLfit) and the Ki is calculated using the Cheng-Prussoff equation.
`Clc1ccc2c(c1)CNCc1nnc([C@H]3CC[C@@H](c4nsc5ccccc54)CC3)n1-2` [Example 34, cis-1-(4-Benzo[d]isothiazol-3-yl-cyclohexyl)-8-chloro-5,6-dihydro-4H-2,3,5,10b-tetraaza-benzo[e]azulene] was tested, and the Ki was 25.7 nM.

Same assay, conditions: 3H-Vasopressin displacement, membranes of HEK293 cells transiently transfected with human V1a receptor; Ki by Cheng-Prusoff; read-out: pKi (hV1a) (converted)
Work on `CC(C)(C)OC(=O)N1Cc2cc(Cl)ccc2-n2c(nnc2[C@H]2CC[C@H](c3nsc4cccnc43)CC2)C1` [Example 27, trans-8-Chloro-1-(4-isothiazolo[4,5-b]pyridin-3-yl-cyclohexyl)-4H,6H-2,3,5,10b-tetraaza-benzo[e]azulene-5-carboxylic acid tert-butyl ester] yielded a Ki of 4.27 nM.
`Clc1ccc2c(c1)CNCc1nnc([C@H]3CC[C@H](c4nsc5cccnc54)CC3)n1-2` [Example 28, trans-8-Chloro-1-(4-isothiazolo[4,5-b]pyridin-3-yl-cyclohexyl)-5,6-dihydro-4H-2,3,5,10b-tetraaza-benzo[e]azulene] gave a Ki of 1.1 nM.
`CN1Cc2cc(Cl)ccc2-n2c(nnc2[C@H]2CC[C@H](c3nsc4cccnc43)CC2)C1` [Example 29, trans-8-Chloro-1-(4-isothiazolo[4,5-b]pyridin-3-yl-cyclohexyl)-5-methyl-5,6-dihydro-4H-2,3,5,10b-tetraaza-benzo[e]azulene] was tested, and the Ki was 0.794 nM.
Compound `CC(C)(C)OC(=O)N1Cc2cc(Cl)ccc2-n2c(nnc2[C@H]2CC[C@H](c3nsc4cnccc43)CC2)C1` [Example 30] has a Ki of 5.5 nM.
Compound `Clc1ccc2c(c1)CNCc1nnc([C@H]3CC[C@H](c4nsc5cnccc54)CC3)n1-2` [Example 31, trans-8-Chloro-1-(4-isothiazolo[5,4-c]pyridin-3-yl-cyclohexyl)-5,6-dihydro-4H-2,3,5,10b-tetraaza-benzo[e]azulene] has a Ki of 2.57 nM.
Compound `CN1Cc2cc(Cl)ccc2-n2c(nnc2[C@H]2CC[C@H](c3nsc4cnccc43)CC2)C1` [Example 32] has a Ki of 0.891 nM.
`CC(C)(C)OC(=O)N1Cc2cc(Cl)ccc2-n2c(nnc2[C@H]2CC[C@@H](c3nsc4ccccc43)CC2)C1` [Example 33, cis-1-(4-Benzo[d]isothiazol-3-yl-cyclohexyl)-8-chloro-4H,6H-2,3,5,10b-tetraaza-benzo[e]azulene-5-carboxylic acid tert-butyl ester] showed a Ki of 1.1 nM.
For `CN1Cc2cc(Cl)ccc2-n2c(nnc2[C@H]2CC[C@@H](c3nsc4ccccc43)CC2)C1` [Example 35, cis-1-(4-Benzo[d]isothiazol-3-yl-cyclohexyl)-8-chloro-5-methyl-5,6-dihydro-4H-2,3,5,10b-tetraaza-benzo[e]azulene], the Ki was 4.27 nM.
